Data: ChEMBL document CHEMBL1687763 (2010)
Values after ≈ are worked out from the molar mass of the structure shown.

How the values were obtained:
[1] = test system: Staphylococcus aureus; experiment: Antimicrobial activity against methicillin-resistant Staphylococcus aureus isolate 55 after 48 hrs by macrodilution method; conditions: isolate 55, 48 h
[2] = test system: Staphylococcus aureus; experiment: Antimicrobial activity against methicillin-resistant Staphylococcus aureus isolate 56 after 24 hrs by macrodilution method; conditions: isolate 56, 24 h
[3] = test system: Staphylococcus aureus; experiment: Antimicrobial activity against methicillin-resistant Staphylococcus aureus isolate 55 after 24 hrs by agar dilution method; conditions: isolate 55, 24 h
[4] = test system: Staphylococcus aureus; experiment: Antimicrobial activity against methicillin-resistant Staphylococcus aureus isolate 55 grown on brain heart infusion media after 48 hrs by macrodilution method; conditions: isolate 55, 48 h
[5] = test system: Staphylococcus aureus; experiment: Antimicrobial activity against methicillin-resistant Staphylococcus aureus isolate 56 after 48 hrs by macrodilution method; conditions: isolate 56, 48 h
[6] = test system: Staphylococcus aureus; experiment: Antimicrobial activity against heterogenous glycopeptide-intermediate resistant Staphylococcus aureus Mu3-D grown on brain heart infusion media after 48 hrs by tube macrodilution method
[7] = test system: Staphylococcus aureus; experiment: Antimicrobial activity against methicillin-resistant Staphylococcus aureus isolate 12 by broth microdilution method
[8] = test system: Staphylococcus aureus; experiment: Antimicrobial activity against methicillin-resistant Staphylococcus aureus isolate 56 grown on brain heart infusion media after 48 hrs by macrodilution method; conditions: isolate 56, 48 h
[9] = test system: Staphylococcus aureus; experiment: Antimicrobial activity against methicillin-resistant Staphylococcus aureus isolate 1 by broth microdilution method
[10] = test system: Staphylococcus aureus; experiment: Antimicrobial activity against methicillin-resistant Staphylococcus aureus isolate 6 by broth microdilution method
[11] = test system: Staphylococcus aureus; experiment: Antimicrobial activity against methicillin-resistant Staphylococcus aureus isolate 56 grown on CAMHB media after 48 hrs by tube macrodilution method; conditions: isolate 56, 48 h
[12] = test system: Staphylococcus aureus; experiment: Antimicrobial activity against methicillin-resistant Staphylococcus aureus isolate 8 by broth microdilution method
[13] = test system: Staphylococcus aureus; experiment: Antimicrobial activity against methicillin-resistant Staphylococcus aureus isolate 56 after 48 hrs by agar dilution method; conditions: isolate 56, 48 h
[14] = test system: Staphylococcus aureus; experiment: Antimicrobial activity against methicillin-resistant Staphylococcus aureus isolate 55 grown on CAMHB media after 48 hrs by tube macrodilution method; conditions: isolate 55, 48 h
[15] = test system: Staphylococcus aureus; experiment: Antimicrobial activity against methicillin-resistant Staphylococcus aureus isolate 55 after 48 hrs by agar dilution method; conditions: isolate 55, 48 h
[16] = test system: Staphylococcus aureus; experiment: Antimicrobial activity against methicillin-resistant Staphylococcus aureus isolate 55 after 24 hrs by macrodilution method; conditions: isolate 55, 24 h
[17] = test system: Staphylococcus aureus; experiment: Antimicrobial activity against glycopeptide-susceptible Staphylococcus aureus NRS3 by tube macrodilution method
[18] = test system: Staphylococcus aureus; experiment: Antimicrobial activity against methicillin-resistant Staphylococcus aureus isolate 56 after 24 hrs by agar dilution method; conditions: isolate 56, 24 h

## CN[C@H](CC(C)C)C(=O)N[C@H]1C(=O)N[C@@H](CC(N)=O)C(=O)N[C@H]2C(=O)N[C@H]3C(=O)N[C@H](C(=O)N[C@H](C(=O)O)c4cc(O)cc(O)c4-c4cc3ccc4O)[C@H](O)c3ccc(c(Cl)c3)Oc3cc2cc(c3O[C@@H]2O[C@H](CO)[C@@H](O)[C@H](O)[C@H]2O[C@H]2C[C@](C)(N)[C@H](O)[C@H](C)O2)Oc2ccc(cc2Cl)[C@H]1O [VANCOMYCIN]
[1]
  MIC: 8 µg/mL (≈ 5.52 µM)
[2]
  MIC: 8 µg/mL (≈ 5.52 µM)
[3]
  MIC: 8 µg/mL (≈ 5.52 µM)
[4]
  MIC: 8 µg/mL (≈ 5.52 µM)
[5]
  MIC: 8 µg/mL (≈ 5.52 µM)
[6]
  MIC: 4 µg/mL (≈ 2.76 µM)
[7]
  MIC: 0.25 µg/mL (≈ 0.173 µM)
[8]
  MIC: 8 µg/mL (≈ 5.52 µM)
[9]
  MIC: 0.25 µg/mL (≈ 0.173 µM)
[10]
  MIC: 0.25 µg/mL (≈ 0.173 µM)
[11]
  MIC: 8 µg/mL (≈ 5.52 µM)
[12]
  MIC: 0.25 µg/mL (≈ 0.173 µM)
[13]
  MIC: 8 µg/mL (≈ 5.52 µM)
[14]
  MIC: 8 µg/mL (≈ 5.52 µM)
[15]
  MIC: 8 µg/mL (≈ 5.52 µM)
[16]
  MIC: 8 µg/mL (≈ 5.52 µM)
[17]
  MIC: ≥ 8 µg/mL
[18]
  MIC: 8 µg/mL (≈ 5.52 µM)
